From US20160214983A1, “3,7-DIAZABICYCLO[3.3.1]NONANE CARBOXAMIDES AS ANTITHROMBOTIC AGENTS” (COUNCIL OF SCIENTIFIC & INDUSTRIAL RESEARCH, priority 2013, published 2016)
Values joined by “and” are separate entries in the source; they are usually repeats but may differ in a detail not shown here. Identical values can stand only once.

What was measured:
[1] = system: collagen plus epinephrine induced pulmonary thromboembolism; assay: Collagen-epinephrine induced pulmonary thromboembolism in mice; format: in vivo
Method: To assess the antithrombotic efficacy of compounds, mice were grouped into vehicle, aspirin and compound treated groups, and each group included ten animals. Pulmonary thromboembolism was induced by injecting a mixture of collagen (150 μg/ml) and adrenaline (50 μg/ml) into the tail vein to achieve final doses of collagen (1.5 mg/kg) and adrenaline (0.5 mg/kg) to induce hind limb paralysis or death.^11, 12 Number of test animals killed or paralyzed were evaluated (death/paralysis were employed as endpoint to evaluate antithrombotic agents). The percent protection was calculated by taking the ratio of number of test animals killed or paralyzed to that of total tested animals. Results have been reported as percentage protection, which represents protection against collagen and epinephrine induced thromboembolism and expressed as;
Percent Protection=[1−(Ptest/Pcontrol)]×100
Where, Ptest is the number of animals paralyzed/dead in test compound-treated group, and Pcontrol is the total number of animals paralyzed/dead in vehicle treated group. The percent protection refers to the number of animals in compound treated group that were prevented from paralysis/death.

[2] = system: ferric chloride induced arterial thrombosis; assay: FeCl3 induced carotid artery thrombosis in mice; format: in vivo; conditions: 1d 4 hr after oral administration, control 9.5±0.4 min
Method: Male Swiss albino mice were anesthetized byurethane (1.25 g/kg, i.p.). The carotid artery was carefully dissected and a pulsed Doppler Probe (LDF 100C, BioPac, USA) was placed around it to record the blood flow velocity and patency of the blood vessels. The carotid artery thrombosis was induced by FeCl3 as follows: a square (1×0.5 mm) of Whatman Chromatography paper was immersed in 10% FeCl3 solution for 5 min and placed on the carotid artery as described earlier. (Kurz K D, et al., Thromb Res 1990; 60(4):269-80; Surin W R et al J Pharmacol Toxicol Methods. 2010; 61(3):287-91) Thrombosis was monitored as the reduction in carotid artery blood flow. The time at which the blood-flow velocity was decreased to zero was recorded as the time to occlusion (TTO) of the carotid artery.

[3] = system: human platelets; assay: Collagen induced platelet aggregation in human platelets (in vitro); format: cell-based; conditions: compound concentration 30 μM, n = 3; for inhibition at 30 µM: Homo sapiens, Platelet
[4] = Mus musculus, po, 1 h, read-out: Protection (%)

Compound: CC(=O)Oc1ccccc1C(=O)O [Aspirin, reference compound]
- inhibition in vivo at 170 µM, 170 µmol/kg [1, 4]: 40%
- Protection (%) ([1]; mice, Aspirin at 170 μm (text: 170 μM/kg)): 40 (at 170 μm) % and 40 (at %

Compound: COC(=O)[C@H](c1ccccc1Cl)N1CCc2sccc2C1 [Clopidogrel, reference compound]
- time to occlusion (TTO) of carotid artery [2]: ≤ 23 ± 0.9 min

Compound: CC(C)(C)OC(=O)N1CC2CC(C1)CN(C(=O)[C@@H]1CCC(=O)N1Cc1ccccc1)C2 [Compound 1a, 7-(1-Benzyl-5-oxo-pyrrolidine-2-carbonyl)-3,7-diaza-bicyclo[3.3.1]nonane-3-carboxylic acid tert-butyl ester]
- inhibition in vivo at 30 µM, 30 µmol/kg [1, 4]: 40%
- inhibition at 30 µM [3]: 6 ± 14%

Compound: CC(C)(C)OC(=O)N1CC2CC(C1)CN(C(=O)[C@@H]1CCC(=O)N1Cc1ccccc1Br)C2 [Compound 1b, 7-[1-(2-Bromo-benzyl)-5-oxo-pyrrolidine-2-carbonyl]-3,7-diaza-bicyclo[3.3.1]nonane-3-carboxylic acid tert-butyl ester]
- inhibition in vivo at 30 µM, 30 µmol/kg [1, 4]: 50%
- Inhibition (%) of collagen induced platelet aggregation [3]: Ns

Compound: O=C([C@@H]1CCC(=O)N1Cc1ccccc1)N1CC2CC(CN(Cc3ccccc3)C2)C1 [Compound 1c, 1-Benzyl-5-(7-benzyl-3,7-diaza-bicyclo[3.3.1]nonane-3-carbonyl)-pyrrolidin-2-one]
- inhibition in vivo at 30 µM, 30 µmol/kg [1, 4]: 30%
- inhibition at 30 µM [3]: 44 ± 13%

Compound: Cc1ccc(CN2C(=O)CC[C@H]2C(=O)N2CC3CC(CN(C(=O)OC(C)(C)C)C3)C2)cc1 [Compound 1e, 7-[1-(4-Methyl-benzyl)-5-oxo-pyrrolidine-2-carbonyl]-3,7-diaza-bicyclo[3.3.1]nonane-3-carboxylic acid tert-butyl ester]
- inhibition in vivo at 30 µM, 30 µmol/kg [1, 4]: 40%
- inhibition at 30 µM [3]: 25 ± 9%

Compound: Cc1ccc(CN2C(=O)CC[C@H]2C(=O)N2CC3CC(CN(Cc4ccccc4)C3)C2)cc1 [Compound 1f, 5-(7-Benzyl-3,7-diaza-bicyclo[3.3.1]nonane-3-carbonyl)-1-(4-methyl-benzyl)-pyrrolidin-2-one]
- inhibition in vivo at 30 µM, 30 µmol/kg [1, 4]: 25%
- inhibition at 30 µM [3]: 7 ± 7%

Compound: O=C([C@@H]1CCC(=O)N1Cc1c(Cl)cccc1Cl)N1CC2CC(CN(Cc3ccccc3)C2)C1 [Compound 1g, (5S)-5-(7-benzyl-3,7-diazabicyclo[3.3.1]nonane-3-carbonyl)-1-(2,6-dichlorobenzyl)pyrrolidin-2-one]
- inhibition in vivo at 30 µM, 30 µmol/kg [1, 4]: 40%
- inhibition at 30 µM [3]: 57 to 86%

Compound: O=C([C@@H]1CCC(=O)N1Cc1ccc(Cl)cc1)N1CC2CC(CN(Cc3ccccc3)C2)C1 [Compound 1h]
- inhibition in vivo at 30 µM, 30 µmol/kg [1, 4]: 30%
- inhibition at 30 µM [3]: 57 to 86%

Compound: Cc1ccc(S(=O)(=O)N2C(=O)CC[C@H]2C(=O)N2CC3CC(CN(Cc4ccccc4)C3)C2)cc1 [Compound 1i, (5S)-5-(7-benzyl-3,7-diazabicyclo[3.3.1]nonane-3-carbonyl)-1-tosylpyrrolidin-2-one]
- inhibition in vivo at 30 µM, 30 µmol/kg [1, 4]: 30%
- inhibition at 30 µM [3]: 29 ± 1%

Compound: CC(C)(C)OC(=O)N1CC2CC(C1)CN(C(=O)[C@@H]1CCC(=O)N1Cc1ccc(C#N)cc1)C2 [Compound 1j, tert-butyl-7-((S)-1-(4-cyanobenzyl)-5-oxopyrrolidine-2-carbonyl)3,7diazabicyclo[3.3.1]nonane-3-carboxylate]
- inhibition in vivo at 30 µM, 30 µmol/kg [1, 4]: 55%
- inhibition at 30 µM [3]: 11 ± 3%

Compound: CC(C)(C)OC(=O)N1CC2CC(C1)CN(C(=O)[C@@H]1CCC(=O)N1Cc1ccc(Cl)cc1)C2 [Compound 1k, tert-butyl 7-((S)-1-(4-chlorobenzyl)-5-oxopyrrolidine-2-carbonyl)-3,7-diazabicyclo [3.3.1]nonane-3-carboxylate]
- inhibition in vivo at 30 µM, 30 µmol/kg [1, 4]: 30%
- inhibition at 30 µM [3]: 6 ± 11%

Compound: CC(C)(C)OC(=O)N1CC2CC(C1)CN(C(=O)[C@@H]1CCC(=O)N1Cc1c(Cl)cccc1Cl)C2 [Compound 1l, tert-butyl 7-((S)-1-(2,6-dichlorobenzyl)-5-oxopyrrolidine-2-carbonyl)-3,7-diazabicyclo [3.3.1]nonane-3-carboxylate]
- inhibition in vivo at 30 µM, 30 µmol/kg [1, 4]: 30%
- inhibition at 30 µM [3]: 3 ± 3%

Compound: COc1ccc(CN2C(=O)CC[C@H]2C(=O)N2CC3CC(CN(C(=O)OC(C)(C)C)C3)C2)cc1 [Compound 1m, tert-butyl-7-((S)-1-(4-methoxybenzyl)-5-oxopyrrolidine-2-carbonyl)-3,7-diazabicyclo[3.3.1]nonane-3-carboxylate]
- inhibition in vivo at 30 µM, 30 µmol/kg [1, 4]: 45%
- inhibition at 30 µM [3]: 10 ± 3%

Compound: O=C([C@@H]1CCC(=O)N1Cc1ccc(Br)cc1)N1CC2CC(CN(Cc3ccccc3)C2)C1 [Compound 1o, (5S)-5-(7-(4-benzyl)-3,7-diazabicyclo[3.3.1]nonane-3-carbonyl)-1-(4-bromobenzyl)pyrrolidin-2-one]
- inhibition in vivo at 30 µM, 30 µmol/kg [1, 4]: 40%
- inhibition at 30 µM [3]: 57 to 86%

Compound: COc1ccc(CN2C(=O)CC[C@H]2C(=O)N2CC3CC(CN(Cc4ccccc4)C3)C2)cc1 [Compound 1p]
- inhibition in vivo at 30 µM, 30 µmol/kg [1, 4]: 30%
- inhibition at 30 µM [3]: 10 ± 4%

Compound: O=C(c1ccccc1)N1CC2CC(C1)CN(C(=O)[C@@H]1CCC(=O)N1Cc1ccccc1Br)C2 [Compound 1q, 5-(7-Benzoyl-3,7-diaza-bicyclo[3.3.1]nonane-3-carbonyl)-1-(2-bromo-benzyl)-pyrrolidin-2-one]
- inhibition in vivo at 30 µM, 30 µmol/kg [1, 4]: 60%
- inhibition at 30 µM [3]: 25.6 ± 3.55%

Compound: Cc1ccc(S(=O)(=O)N2CC3CC(CN(C(=O)[C@@H]4CCC(=O)N4Cc4ccccc4Br)C3)C2)cc1 [Compound 1r, 1-(2-Bromo-benzyl)-5-[7-(toluene-4-sulphonyl)-3,7-diaza-bicyclo[3.3.1]nonane-3-carbonyl]-pyrrolidin-2-one]
- inhibition in vivo at 30 µM, 30 µmol/kg [1, 4]: 55%
- inhibition at 30 µM [3]: 16.8 ± 5.66%

Compound: Cc1ccc(CN2C(=O)CC[C@H]2C(=O)N2CC3CC(CN(C(=O)c4ccccc4)C3)C2)cc1 [Compound 1s, 5-(7-Benzoyl-3,7-diaza-bicyclo[3.3.1]nonane-3-carbonyl)-1-(4-methyl-benzyl)-pyrrolidin-2-one]
- inhibition in vivo at 30 µM, 30 µmol/kg [1, 4]: 40%
- inhibition at 30 µM [3]: 20.5 ± 7.5%

Compound: Cc1ccc(CN2C(=O)CC[C@H]2C(=O)N2CC3CC(C2)CN(S(=O)(=O)c2ccc(C)cc2)C3)cc1 [Compound 1t, 1-(4-Methyl-benzyl)-5-[7-(toluene-4-sulphonyl)-3,7-diaza-bicyclo[3.3.1]nonane-3-carbonyl]-pyrrolidin-2-one]
- inhibition in vivo at 30 µM, 30 µmol/kg [1, 4]: 40%
- inhibition at 30 µM [3]: 37.5 ± 10.5%

Compound: Cc1ccc(CN2C(=O)CC[C@H]2C(=O)N2CC3CC(CN(Cc4ccccc4Br)C3)C2)cc1 [Compound 1u, (5S)-5-(2-bromobenzyl-3,7-diazabicyclo[3.3.1]nonane-3-carbonyl)-1-(4-methylbenzyl)pyrrolidin-2-one]
- inhibition in vivo at 30 µM, 30 µmol/kg [1, 4]: 30%
- inhibition at 30 µM [3]: 57 to 86%

Compound: Cc1ccc(CN2C(=O)CC[C@H]2C(=O)N2CC3CC(CN(Cc4ccc(Br)cc4)C3)C2)cc1 [Compound 1v, (5S)-5-(7-(4-bromobenzyl)-3,7-diazabicyclo[3.3.1]nonane-3-carbonyl)-1-(4-methylbenzyl)pyrrolidin-2-one]
- inhibition in vivo at 30 µM, 30 µmol/kg [1, 4]: 50%
- inhibition at 30 µM [3]: 57 to 86%

Compound: Cc1ccc(CN2C(=O)CC[C@H]2C(=O)N2CC3CC(CN(Cc4ccc(Cl)cc4)C3)C2)cc1 [Compound 1w, (5S)-5-(7-(4-chlorobenzyl)-3,7-diazabicyclo[3.3.1]nonane-3-carbonyl)-1-(4-methylbenzyl)pyrrolidin-2-one]
- inhibition in vivo at 30 µM, 30 µmol/kg [1, 4]: 35%
- inhibition at 30 µM [3]: 57 to 86%

Compound: CC(C)[C@H](NC(=O)OCc1ccccc1)C(=O)N1CC2CC(CN(Cc3ccccc3)C2)C1 [Compound 1x, Benzyl(2S)-1-(7-benzyl-3,7-diazabicyclo[3.3.1]nonan-3-yl)-3-methyl-1-oxobutan-2-yl carbamate]
- inhibition in vivo at 30 µM, 30 µmol/kg [1, 4]: 20%
- inhibition at 30 µM [3]: 18 ± 4%

Compound: O=C(N[C@@H](Cc1ccccc1)C(=O)N1CC2CC(CN(Cc3ccccc3)C2)C1)OCc1ccccc1 [Compound 1y, Benzyl(2S)-1-(7-benzyl-3,7-diazabicyclo[3.3.1]nonan-3-yl)-1-oxo-3-phenylpropan-2-yl carbamate]
- inhibition in vivo at 30 µM, 30 µmol/kg [1, 4]: 55%
- inhibition at 30 µM [3]: 22 ± 5%

Compound: CC(C)C[C@H](NC(=O)OCc1ccccc1)C(=O)N1CC2CC(CN(Cc3ccccc3)C2)C1 [Compound 1z, Benzyl(2S)-1-(7-benzyl-3,7-diazabicyclo[3.3.1]nonan-3-yl)-4-methyl-1-oxopentan-2-ylcarbamate]
- inhibition in vivo at 30 µM, 30 µmol/kg [1, 4]: 40%
- inhibition at 30 µM [3]: 12 ± 10%
